The values that follow come from US20240368177A1, “5-AMINO-6,8-DIHYDRO-1H-FURO[3,4-d]PYRROLO[3,2-b]PYRIDINE-2-CARBOXAMIDE DERIVATIVES AS MTA-COOPERATIVE INHIBITORS OF PRMT5” (BeiGene Switzerland GmbH, priority 2023, published 2024).

As usually defined, the IC50 is the concentration that gives 50% inhibition. A high value points to lower potency.

In one experiment the test system is HCT116-MTAP-KO. The experiment is described as follows: Cell killing in HCT116 isogenic pair (Cell Titer-Glo viability), MTAP knock-out cells. To be noted: 6 days incubation, 0-10 μM, * = more than 50% viability inhibition at tested concentration without a full curve. In kind it is cell-based, human. The method in brief:
(§1)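 Viability was read by CellTiter-Glo luminescence after 6 days of compound treatment (0–10 μM final, 37° C, 5% CO2), and IC50 values were fitted. The isogenic HCT116 pair, MTAP-KO clone versus mock-KO MTAP-wildtype, was grown in RPMI 1640 plus 10% FBS and seeded the day before.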
(In general: ATP-based viability assays read luminescence as a measure of living cells.)

The subject of another experiment is HCT116-mock-RNA-KO. The experiment is described as follows: Cell killing in HCT116 isogenic pair (Cell Titer-Glo viability), mock knock-out cells with MTAP wildtype genotype. In kind it is cell-based, human. To be noted: 6 days incubation, 0-10 μM. The method in brief:
as §1

Consider `C[C@@H](c1c(F)cc(C(F)(F)F)cc1F)N(C)C(=O)c1cc2nc(N)c3c(c2[nH]1)COC3` [Example 149, (S)-5-amino-N-(1-(2,6-difluoro-4-(trifluoromethyl)phenyl)ethyl)-N-methyl-6,8-dihydro-1H-furo[3,4-d]pyrrolo[3,2-b]pyridine-2-carboxamide], for which the IC50 in the experiment on HCT116-MTAP-KO (Homo sapiens, HCT-116, 144 h) was 2680 nM; in the experiment on HCT116-mock-RNA-KO (Homo sapiens, HCT-116, 144 h) it was greater than 10000 nM.

Turning to `C[C@H](c1c(F)cc(C(F)(F)F)cc1F)N(C)C(=O)c1cc2nc(N)c3c(c2[nH]1)COC3` [Example 150, (R)-5-amino-N-(1-(2,6-difluoro-4-(trifluoromethyl)phenyl)ethyl)-N-methyl-6,8-dihydro-1H-furo[3,4-d]pyrrolo[3,2-b]pyridine-2-carboxamide], the IC50 with HCT116-MTAP-KO (Homo sapiens, HCT-116, 144 h) amounted to 32 nM; in the experiment on HCT116-mock-RNA-KO (Homo sapiens, HCT-116, 144 h), 2790 nM.

Regarding `Cc1cc([C@@H](C)N(C)C(=O)c2cc3nc(N)c4c(c3[nH]2)COC4)c(F)cc1C1CC1` [Example 151, (R)-5-amino-N-(1-(4-cyclopropyl-2-fluoro-5-methylphenyl)ethyl)-N-methyl-6,8-dihydro-1H-furo[3,4-d]pyrrolo[3,2-b]pyridine-2-carboxamide], the half-inhibitory concentration (IC50) in the experiment on HCT116-MTAP-KO (Homo sapiens, HCT-116, 144 h) was 85 nM; in the experiment on HCT116-mock-RNA-KO (Homo sapiens, HCT-116, 144 h) it was greater than 10000 nM.

For `Cc1cc([C@H](C)N(C)C(=O)c2cc3nc(N)c4c(c3[nH]2)COC4)c(F)cc1C1CC1` [Example 152, (S)-5-amino-N-(1-(4-cyclopropyl-2-fluoro-5-methylphenyl)ethyl)-N-methyl-6,8-dihydro-1H-furo[3,4-d]pyrrolo[3,2-b]pyridine-2-carboxamide], the IC50 is 1280 nM in the experiment with HCT116-MTAP-KO (Homo sapiens, HCT-116, 144 h) and greater than 10000 nM with HCT116-mock-RNA-KO (Homo sapiens, HCT-116, 144 h).

Take `C[C@H](c1ncc(C2CC2)cc1F)N(C(=O)c1cc2nc(N)c3c(c2[nH]1)COC3)C1CCC1` [Example 153, (R)-5-amino-N-cyclobutyl-N-(1-(5-cyclopropyl-3-fluoropyridin-2-yl)ethyl)-6,8-dihydro-1H-furo[3,4-d]pyrrolo[3,2-b]pyridine-2-carboxamide]: the IC50 is 10 nM in the experiment on HCT116-MTAP-KO (Homo sapiens, HCT-116, 144 h) and 610 nM in the experiment on HCT116-mock-RNA-KO (Homo sapiens, HCT-116, 144 h).

For `C[C@@H](c1ncc(C2CC2)cc1F)N(C(=O)c1cc2nc(N)c3c(c2[nH]1)COC3)C1CCC1` [Example 154, (S)-5-amino-N-cyclobutyl-N-(1-(5-cyclopropyl-3-fluoropyridin-2-yl)ethyl)-6,8-dihydro-1H-furo[3,4-d]pyrrolo[3,2-b]pyridine-2-carboxamide], the IC50 was determined as 1630 nM in the experiment on HCT116-MTAP-KO (Homo sapiens, HCT-116, 144 h) and 8520 nM in the experiment with HCT116-mock-RNA-KO (Homo sapiens, HCT-116, 144 h).

For the compound `C[C@H](c1ncc(C(F)(F)F)cc1F)N(C(=O)c1cc2nc(N)c3c(c2[nH]1)COC3)C1CCC1` [Example 155, (R)-5-amino-N-cyclobutyl-N-(1-(3-fluoro-5-(trifluoromethyl)pyridin-2-yl)ethyl)-6,8-dihydro-1H-furo[3,4-d]pyrrolo[3,2-b]pyridine-2-carboxamide], the IC50 in the experiment with HCT116-MTAP-KO (Homo sapiens, HCT-116, 144 h) was determined as 19 nM; in the experiment with HCT116-mock-RNA-KO (Homo sapiens, HCT-116, 144 h), 2250 nM.

With `C[C@@H](c1ncc(C(F)(F)F)cc1F)N(C(=O)c1cc2nc(N)c3c(c2[nH]1)COC3)C1CCC1` [Example 156, (S)-5-amino-N-cyclobutyl-N-(1-(3-fluoro-5-(trifluoromethyl)pyridin-2-yl)ethyl)-6,8-dihydro-1H-furo[3,4-d]pyrrolo[3,2-b]pyridine-2-carboxamide], the half-inhibitory concentration (IC50) with HCT116-MTAP-KO (Homo sapiens, HCT-116, 144 h) was 523 nM; in the experiment on HCT116-mock-RNA-KO (Homo sapiens, HCT-116, 144 h), greater than 10000 nM.

In the case of `COCCN(C(=O)c1cc2nc(N)c3c(c2[nH]1)COC3)[C@H](C)c1ncc(C(F)(F)F)cc1F` [Example 157, (R)-5-amino-N-(1-(3-fluoro-5-(trifluoromethyl)pyridin-2-yl)ethyl)-N-(2-methoxyethyl)-6,8-dihydro-1H-furo[3,4-d]pyrrolo[3,2-b]pyridine-2-carboxamide], the IC50 with HCT116-MTAP-KO (Homo sapiens, HCT-116, 144 h) is 64 nM; in the experiment with HCT116-mock-RNA-KO (Homo sapiens, HCT-116, 144 h) it was greater than 10000 nM.

For the compound `COCCN(C(=O)c1cc2nc(N)c3c(c2[nH]1)COC3)[C@@H](C)c1ncc(C(F)(F)F)cc1F` [Example 158, (S)-5-amino-N-(1-(3-fluoro-5-(trifluoromethyl)pyridin-2-yl)ethyl)-N-(2-methoxyethyl)-6,8-dihydro-1H-furo[3,4-d]pyrrolo[3,2-b]pyridine-2-carboxamide], the IC50 is 2020 nM in the experiment on HCT116-MTAP-KO (Homo sapiens, HCT-116, 144 h) and greater than 10000 nM in the experiment on HCT116-mock-RNA-KO (Homo sapiens, HCT-116, 144 h).

As for `C[C@H](c1ccc(C2CC2)cn1)N(C(=O)c1cc2nc(N)c3c(c2[nH]1)COC3)C1CCC1` [Example 159, (R)-5-amino-N-cyclobutyl-N-(1-(5-cyclopropylpyridin-2-yl)ethyl)-6,8-dihydro-1H-furo[3,4-d]pyrrolo[3,2-b]pyridine-2-carboxamide], the 50% inhibitory concentration (IC50) in the experiment with HCT116-MTAP-KO (Homo sapiens, HCT-116, 144 h) came out at 36 nM; in the experiment with HCT116-mock-RNA-KO (Homo sapiens, HCT-116, 144 h), 2580 nM.

As for `C[C@@H](c1ccc(C2CC2)cn1)N(C(=O)c1cc2nc(N)c3c(c2[nH]1)COC3)C1CCC1` [Example 160, (S)-5-amino-N-cyclobutyl-N-(1-(5-cyclopropylpyridin-2-yl)ethyl)-6,8-dihydro-1H-furo[3,4-d]pyrrolo[3,2-b]pyridine-2-carboxamide], the IC50 with HCT116-MTAP-KO (Homo sapiens, HCT-116, 144 h) was 598 nM; with HCT116-mock-RNA-KO (Homo sapiens, HCT-116, 144 h) it was greater than 10000 nM.

`CCN(C(=O)c1cc2nc(N)c3c(c2[nH]1)COC3)[C@@H]1COC2(CC2)c2cc(C(F)(F)F)ccc21` [Example 161, (S)-5-amino-N-ethyl-N-(7′-(trifluoromethyl)spiro[cyclopropane-1,1′-isochroman]-4′-yl)-6,8-dihydro-1H-furo[3,4-d]pyrrolo[3,2-b]pyridine-2-carboxamide]: the IC50 with HCT116-MTAP-KO (Homo sapiens, HCT-116, 144 h) came out at 39 nM; in the experiment with HCT116-mock-RNA-KO (Homo sapiens, HCT-116, 144 h) it was 2800 nM.

Turning to `CN(C(=O)c1cc2nc(N)c3c(c2[nH]1)COC3)[C@@H]1CCOc2cc(C(F)(F)F)ccc21` [Example 162, (R)-5-amino-N-methyl-N-(7-(trifluoromethyl)chroman-4-yl)-6,8-dihydro-1H-furo[3,4-d]pyrrolo[3,2-b]pyridine-2-carboxamide], the half-maximal inhibitory concentration (IC50) in the experiment on HCT116-MTAP-KO (Homo sapiens, HCT-116, 144 h) was 186 nM; in the experiment with HCT116-mock-RNA-KO (Homo sapiens, HCT-116, 144 h), greater than 10000 nM.

As to `CN(C(=O)c1cc2nc(N)c3c(c2[nH]1)COC3)[C@H]1COCc2cc(C(F)(F)F)cnc21` [Example 163, (R)-5-amino-N-methyl-N-(3-(trifluoromethyl)-7,8-dihydro-5H-pyrano[4,3-b]pyridin-8-yl)-6,8-dihydro-1H-furo[3,4-d]pyrrolo[3,2-b]pyridine-2-carboxamide], the half-inhibitory concentration (IC50) with HCT116-MTAP-KO (Homo sapiens, HCT-116, 144 h) is greater than 10000 nM; with HCT116-mock-RNA-KO (Homo sapiens, HCT-116, 144 h), greater than 10000 nM.

For the compound `CN(C(=O)c1cc2nc(N)c3c(c2[nH]1)COC3)[C@@H]1COCc2cc(C(F)(F)F)cnc21` [Example 164, (S)-5-amino-N-methyl-N-(3-(trifluoromethyl)-7,8-dihydro-5H-pyrano[4,3-b]pyridin-8-yl)-6,8-dihydro-1H-furo[3,4-d]pyrrolo[3,2-b]pyridine-2-carboxamide], the IC50 in the experiment on HCT116-MTAP-KO (Homo sapiens, HCT-116, 144 h) was 145 nM; in the experiment on HCT116-mock-RNA-KO (Homo sapiens, HCT-116, 144 h) it was greater than 10000 nM.

For the compound `C[C@H]1OCc2c1c(N)nc1cc(C(=O)N(C)[C@@H]3COC4(CC4)c4cc(C(F)(F)F)ccc43)[nH]c21` [Example 165, (R)-5-amino-N,6-dimethyl-N—((S)-7′-(trifluoromethyl)spiro[cyclopropane-1,1′-isochroman]-4′-yl)-6,8-dihydro-1H-furo[3,4-d]pyrrolo[3,2-b]pyridine-2-carboxamide], the IC50 in the experiment with HCT116-MTAP-KO (Homo sapiens, HCT-116, 144 h) was 17 nM; in the experiment with HCT116-mock-RNA-KO (Homo sapiens, HCT-116, 144 h) it was 2570 nM.

Take `CCN(C(=O)c1cc2nc(N)c3c(c2[nH]1)CO[C@@H]3C)[C@@H]1COC2(CC2)c2cc(C(F)(F)F)ccc21` [Example 166, (R)-5-amino-N-ethyl-6-methyl-N—((S)-7′-(trifluoromethyl)spiro[cyclopropane-1,1′-isochroman]-4′-yl)-6,8-dihydro-1H-furo[3,4-d]pyrrolo[3,2-b]pyridine-2-carboxamide]: the IC50 in the experiment on HCT116-MTAP-KO (Homo sapiens, HCT-116, 144 h) was 19 nM; in the experiment on HCT116-mock-RNA-KO (Homo sapiens, HCT-116, 144 h) it was 2150 nM.

For the compound `CN(C(=O)c1cc2nc(N)c3c(c2[nH]1)COC3)[C@H]1COC2(CC2)c2cc(C(F)(F)F)cc(F)c21` [Example 167, (R)-5-amino-N-(5′-fluoro-7′-(trifluoromethyl)spiro[cyclopropane-1,1′-isochroman]-4′-yl)-N-methyl-6,8-dihydro-1H-furo[3,4-d]pyrrolo[3,2-b]pyridine-2-carboxamide], the IC50 turned out to be 697 nM in the experiment with HCT116-MTAP-KO (Homo sapiens, HCT-116, 144 h) and 3320 nM in the experiment with HCT116-mock-RNA-KO (Homo sapiens, HCT-116, 144 h).

Take `CN(C(=O)c1cc2nc(N)c3c(c2[nH]1)COC3)[C@@H]1COC2(CC2)c2cc(C(F)(F)F)cc(F)c21` [Example 168, (S)-5-amino-N-(5′-fluoro-7′-(trifluoromethyl)spiro[cyclopropane-1,1′-isochroman]-4′-yl)-N-methyl-6,8-dihydro-1H-furo[3,4-d]pyrrolo[3,2-b]pyridine-2-carboxamide]: the IC50 in the experiment on HCT116-MTAP-KO (Homo sapiens, HCT-116, 144 h) turned out to be 8.4 nM; in the experiment on HCT116-mock-RNA-KO (Homo sapiens, HCT-116, 144 h), 2110 nM.

Consider `C[C@H]1OCc2c1c(N)nc1cc(C(=O)N(C)[C@H]3COC4(CC4)c4cc(C(F)(F)F)cc(F)c43)[nH]c21` [Example 169, (R)-5-amino-N—((R)-5′-fluoro-7′-(trifluoromethyl)spiro[cyclopropane-1,1′-isochroman]-4′-yl)-N,6-dimethyl-6,8-dihydro-1H-furo[3,4-d]pyrrolo[3,2-b]pyridine-2-carboxamide], for which the IC50 came out at 565 nM in the experiment with HCT116-MTAP-KO (Homo sapiens, HCT-116, 144 h) and 2110 nM with HCT116-mock-RNA-KO (Homo sapiens, HCT-116, 144 h).

In the case of `C[C@H]1OCc2c1c(N)nc1cc(C(=O)N(C)[C@@H]3COC4(CC4)c4cc(C(F)(F)F)cc(F)c43)[nH]c21` [Example 170, (R)-5-amino-N—((S)-5′-fluoro-7-(trifluoromethyl)spiro[cyclopropane-1,1′-isochroman]-4′-yl)-N,6-dimethyl-6,8-dihydro-1H-furo[3,4-d]pyrrolo[3,2-b]pyridine-2-carboxamide], the IC50 was determined as 4.4 nM with HCT116-MTAP-KO and 1010 nM in the experiment on HCT116-mock-RNA-KO.

Regarding `C[C@H]1OCc2c1c(N)nc1cc(C(=O)N(C)[C@@H]3COC4(CC4)c4cc(C5CC5)ccc43)[nH]c21` [Example 171, (R)-5-amino-N—((S)-7′-cyclopropylspiro[cyclopropane-1,1′-isochroman]-4′-yl)-N,6-dimethyl-6,8-dihydro-1H-furo[3,4-d]pyrrolo[3,2-b]pyridine-2-carboxamide], the IC50 was 39 nM in the experiment on HCT116-MTAP-KO (Homo sapiens, HCT-116, 144 h) and 3030 nM in the experiment with HCT116-mock-RNA-KO (Homo sapiens, HCT-116, 144 h).
